The values that follow are results of earlier work, collected in paper PMC4460250, “Systems Pharmacology Dissecting Holistic Medicine for Treatment of Complex Diseases: An Example Using Cardiocerebrovascular Diseases Treated by TCM” (Evidence-based Complementary and Alternative Medicine : eCAM, 2015).

The conditions of the first series: human; PreHIA data set, value given as fraction; cited from earlier work.
As to `N[C@@H](Cc1ccc(O)c(O)c1)C(=O)O` [Levodopa], the “HIA(Human Intestinal Absorption)” value was 0.86.

Still in this series, the particulars now being: in vivo; cited from earlier work.
Take `COc1ccc2c(c1)C(=O)N(CCc1ccc(S(=O)(=O)NC(=O)NC3CCCCC3)cc1)C(=O)C2(C)C` [Gliquidone]: the “HIA(Human Intestinal Absorption)” value is 0.95. In the case of `CCCN1CC(NS(=O)(=O)N(CC)CC)CC2Cc3c(O)cccc3CC21` (stereo not drawn) [Quinagolide], the “HIA(Human Intestinal Absorption)” value was 1. Regarding `c1ccc2[nH]c(-c3cscn3)nc2c1` [Thiabendazole], the “HIA(Human Intestinal Absorption)” value was 0.9. In the case of `COc1ccc(CCN2CCC(Nc3nc4ccccc4n3Cc3ccc(F)cc3)CC2)cc1` [Astemizole], the “HIA(Human Intestinal Absorption)” value was 1.

For the compound `CN(C)CCC(c1ccc(Cl)cc1)c1ccccn1` (stereo not drawn) [Chlorpheniramine], the “HIA(Human Intestinal Absorption)” value is recorded as 0.8. As to `Nc1ccc(/N=N/c2ccccc2)c(N)n1` [Phenazopyridine], the “HIA(Human Intestinal Absorption)” value was 0.9. Regarding `CCCCC1=NC2(CCCC2)C(=O)N1Cc1ccc(-c2ccccc2-c2nnn[nH]2)cc1` [Irbesartan], the “HIA(Human Intestinal Absorption)” value is listed as 1.

In the case of `Nc1nc(=O)[nH]cc1F` [Flucytosine], the “HIA(Human Intestinal Absorption)” value is on record as 1. As for `COc1ccc2[nH]c([S+]([O-])Cc3ncc(C)c(OC)c3C)nc2c1` (stereo not drawn) [Omeprazole], the “HIA(Human Intestinal Absorption)” value is 0.8.

Consider `C#C[C@]1(O)C=C[C@H]2[C@@H]3CCC4=CC(=O)CC[C@@H]4[C@H]3CC[C@@]21CC` [Gestodene], for which the “HIA(Human Intestinal Absorption)” value is reported as 1. Turning to `CCOc1ccccc1OCCN[C@H](C)Cc1ccc(OC)c(S(N)(=O)=O)c1` [Tamsulosin], the “HIA(Human Intestinal Absorption)” value is given as 1. Consider `CC(=O)Nc1ccccc1` [Acetanilide], for which the “HIA(Human Intestinal Absorption)” value was 1. As to `O=C1CN2Cc3c(ccc(Cl)c3Cl)N=C2N1` [Anagrelide], the “HIA(Human Intestinal Absorption)” value was 0.7. Consider `NCCC(O)(P(=O)(O)O)P(=O)(O)O` [Pamidronic_acid], for which the “HIA(Human Intestinal Absorption)” value is 0.05. As for `CN1C(C(=O)Nc2ccccn2)=C(O)c2ccccc2S1(=O)=O` [Piroxicam], the “HIA(Human Intestinal Absorption)” value is 1. On to `COc1cc(C)c(/C=C/C(C)=C/C=C/C(C)=C/C(=O)O)c(C)c1C` [Acitretin], for which the “HIA(Human Intestinal Absorption)” value was 0.95.

For `CO/N=C(\C(=O)N[C@@H]1C(=O)N2C(C(=O)O)=C(COC(N)=O)CS[C@H]12)c1ccco1` [Cefuroxime], the “HIA(Human Intestinal Absorption)” value is on record as 1. As to `OCCN1CCN(CCC=C2c3ccccc3Sc3ccc(Cl)cc32)CC1` [Clopenthixol], the “HIA(Human Intestinal Absorption)” value is listed as 0.95.

On to `C#C[C@]1(OC(C)=O)CC[C@H]2[C@@H]3CCC4=CC(=NO)CC[C@@H]4[C@H]3CC[C@@]21CC` (mixture of isomers) [Norgestimate], for which the “HIA(Human Intestinal Absorption)” value is recorded as 1. In the case of `CO/N=C(\C(=O)N[C@@H]1C(=O)N2C(C(=O)O)=C(COC(C)=O)CS[C@H]12)c1csc(N)n1` [Cefotaxime], the “HIA(Human Intestinal Absorption)” value is recorded as 0.05. Consider `N[C@@H]1CON=C1O` [Cycloserine], for which the “HIA(Human Intestinal Absorption)” value is given as 0.73. In the case of `COc1ccc([C@]2(C#N)CC[C@@H](C(=O)O)CC2)cc1OC1CCCC1` [Cilomilast], the “HIA(Human Intestinal Absorption)” value was 1.

Turning to `COc1ccc(Cl)cc1C(=O)NCCc1ccc(S(=O)(=O)NC(=O)NC2CCCCC2)cc1` [Glyburide], the “HIA(Human Intestinal Absorption)” value is 1. As to `C[C@@H](O)[C@H]1C(=O)N2C(C(=O)O)=C(SCCN=CN)C[C@H]12` [Imipenem], the “HIA(Human Intestinal Absorption)” value is listed as 0.05.

As to `Nc1nc(O)c2ncn(COC(CO)CO)c2n1` [Ganciclovir], the “HIA(Human Intestinal Absorption)” value was 0.038. Take `CC(C)(C)NCC(O)COc1cccc2c1CC(O)C(O)C2` (stereo not drawn) [Nadolol]: the “HIA(Human Intestinal Absorption)” value is 0.57.

For the compound `CCCCc1nc(Cl)c(CO)n1Cc1ccc(-c2ccccc2-c2nn[nH]n2)cc1` [Losartan], the “HIA(Human Intestinal Absorption)” value was 0.8. Consider `CC1(C)S[C@@H]2[C@H](NC(=O)[C@H](NC(=O)N3CCN(S(C)(=O)=O)C3=O)c3ccccc3)C(=O)N2[C@H]1C(=O)O` [Mezlocillin], for which the “HIA(Human Intestinal Absorption)” value is listed as 0.01. For the compound `CO[C@H]1C[C@H](O[C@H]2CC[C@]3(C=O)[C@H]4CC[C@]5(C)[C@@H](C6=CC(=O)OC6)CC[C@]5(O)[C@@H]4CC[C@]3(O)C2)O[C@H](C)[C@H]1O` [Cymarin], the “HIA(Human Intestinal Absorption)” value is 0.47. `NC(=O)c1ncn([C@@H]2O[C@H](CO)[C@@H](O)[C@H]2O)n1` [Ribavirin]: the “HIA(Human Intestinal Absorption)” value is listed as 0.33. On to `O=NN(CCCl)C(=O)NCCCl` [Carmustine], for which the “HIA(Human Intestinal Absorption)” value was 1. On to `CCOC(=O)n1ccn(C)c1=S` [Carbimazole], for which the “HIA(Human Intestinal Absorption)” value is listed as 0.95. For the compound `CC(C)(C(=O)c1cccnc1)c1cccnc1` [Metyrapone], the “HIA(Human Intestinal Absorption)” value is 0.8.

For the compound `CC1(C)O[C@@H]2[C@@H](CO[C@@]3(COS(N)(=O)=O)OC(C)(C)O[C@@H]23)O1` [Topiramate], the “HIA(Human Intestinal Absorption)” value is recorded as 0.86. As to `CC/C(=C(/CC)c1ccc(O)cc1)c1ccc(O)cc1` [Diethylstilbestrol], the “HIA(Human Intestinal Absorption)” value was 0.9. Turning to `CN(C/C=C/C#CC(C)(C)C)Cc1cccc2ccccc12` [Terbinafine], the “HIA(Human Intestinal Absorption)” value was 0.8. As to `Cc1ccc(-c2ncc(Cl)cc2-c2ccc(S(C)(=O)=O)cc2)cn1` [Etoricoxib], the “HIA(Human Intestinal Absorption)” value was 1.

Regarding `C#C[C@]1(O)CC[C@H]2[C@@H]3[C@H](C)CC4=C(CCC(=O)C4)[C@H]3CC[C@@]21C` [Tibolone], the “HIA(Human Intestinal Absorption)” value is reported as 0.9. For `O=C(Oc1ccccc1C(=O)O)c1ccccc1O` [Salsalate], the “HIA(Human Intestinal Absorption)” value is 1. For `CCCc1nc2c(C)cc(-c3nc4ccccc4n3C)cc2n1Cc1ccc(-c2ccccc2C(=O)O)cc1` [Telmisartan], the “HIA(Human Intestinal Absorption)” value is 0.9.

Regarding `O=C(O)c1cc(/N=N/c2ccc(S(=O)(=O)Nc3ccccn3)cc2)ccc1O` [Sulphasalazine], the “HIA(Human Intestinal Absorption)” value is given as 0.59. Take `O=C(NCCN1CCOCC1)c1ccc(Cl)cc1` [Moclobemide]: the “HIA(Human Intestinal Absorption)” value is 0.88.

Consider `CN/C(=N/CCSCc1nc[nH]c1C)NC#N` [Cimetidine], for which the “HIA(Human Intestinal Absorption)” value is 0.64. As for `O=C(O)Cc1ccc2c(c1)C(=O)c1ccccc1CO2` [Isoxepac], the “HIA(Human Intestinal Absorption)” value is 0.98. `CN1CCC(=C2c3ccccc3CCc3cccnc32)CC1` [Azatadine]: the “HIA(Human Intestinal Absorption)” value is 0.9. `CC(=O)N(CC(O)CO)c1c(I)c(C(=O)NCC(O)CO)c(I)c(C(=O)NCC(O)CO)c1I` (stereo not drawn) [Iohexol]: the “HIA(Human Intestinal Absorption)” value is 0.05. In the case of `Clc1cccc(Cl)c1N=C1NCCN1` [Clonidine], the “HIA(Human Intestinal Absorption)” value is given as 0.95. With `CC(O)(P(=O)(O)O)P(=O)(O)O` [Etidronate], the “HIA(Human Intestinal Absorption)” value is recorded as 0.05. `NS(=O)(=O)c1cc(C(=O)O)cc(N2CCCC2)c1Oc1ccccc1` [Piretanide]: the “HIA(Human Intestinal Absorption)” value is listed as 0.85.

As to `CC(NCCc1ccc(O)cc1)C(O)c1ccc(O)cc1` (stereo not drawn) [Ritodrine], the “HIA(Human Intestinal Absorption)” value was 0.95. For `Cc1noc(NS(=O)(=O)c2ccc(N)cc2)c1C` [Sulfisoxazole], the “HIA(Human Intestinal Absorption)” value was 0.95.

Regarding `Cc1cn([C@H]2C=C[C@@H](CO)O2)c(=O)[nH]c1=O` [Stavudine], the “HIA(Human Intestinal Absorption)” value was 1. In the case of `CC1=NS(=O)(=O)c2cc(Cl)ccc2N1` [Diazoxide], the “HIA(Human Intestinal Absorption)” value is reported as 0.9. Turning to `NS(=O)(=O)c1cc2c(cc1C(F)(F)F)NC(Cc1ccccc1)NS2(=O)=O` (stereo not drawn) [Bendroflumethiazide], the “HIA(Human Intestinal Absorption)” value is listed as 1.

Consider `Cc1cccc(Nc2ccncc2S(=O)(=O)NC(=O)NC(C)C)c1` [Torasemide], for which the “HIA(Human Intestinal Absorption)” value is 0.96. Take `COc1cc2nc(N3CCN(C(=O)c4ccco4)CC3)nc(N)c2cc1OC` [Prazosin]: the “HIA(Human Intestinal Absorption)” value is recorded as 0.86. For `CN(C)CCc1c[nH]c2ccc(CS(=O)(=O)N3CCCC3)cc12` [Almotriptan], the “HIA(Human Intestinal Absorption)” value is on record as 0.75. `CN1CCN2c3ccccc3Cc3ccccc3C2C1` (stereo not drawn) [Mianserin]: the “HIA(Human Intestinal Absorption)” value is listed as 0.7.

Regarding `CC(=O)Nc1c(I)c(NC(C)=O)c(I)c(C(=O)O)c1I` [Diatrizoate], the “HIA(Human Intestinal Absorption)” value was 0.05. As for `Cc1ccc(C)c(OCCCC(C)(C)C(=O)O)c1` [Gemfibrozil], the “HIA(Human Intestinal Absorption)” value was 1. As for `CC1=C(CC(=O)O)c2cc(F)ccc2/C1=C\c1ccc([S+](C)[O-])cc1` (stereo not drawn) [Sulindac], the “HIA(Human Intestinal Absorption)” value is 0.9. With `CN(C)CCc1c[nH]c2ccc(Cn3cncn3)cc12` [Rizatriptan], the “HIA(Human Intestinal Absorption)” value is reported as 0.9. Take `COCCCOc1ccnc(C[S+]([O-])c2nc3ccccc3[nH]2)c1C` (stereo not drawn) [Rabeprazole]: the “HIA(Human Intestinal Absorption)” value is recorded as 0.9.

As to `NNC(=O)c1ccncc1` [Isoniazid], the “HIA(Human Intestinal Absorption)” value was 0.8. On to `CCCC1O[C@@H]2C[C@H]3[C@@H]4CCC5=CC(=O)C=C[C@]5(C)[C@H]4[C@@H](O)C[C@]3(C)[C@]2(C(=O)CO)O1` (stereo partly drawn) [Budesonide], for which the “HIA(Human Intestinal Absorption)” value was 1. `CC(CCc1ccccc1)NCC(O)c1ccc(O)c(C(N)=O)c1` (stereo not drawn) [Labetalol]: the “HIA(Human Intestinal Absorption)” value is given as 0.95. `CC(=O)OCC(=O)[C@@]1(O)CC[C@H]2[C@@H]3CCC4=CC(=O)CC[C@]4(C)[C@@]3(F)[C@@H](O)C[C@@]21C` [Fludrocortisone_acetate]: the “HIA(Human Intestinal Absorption)” value was 0.95.

As to `Cc1ccc(C(=O)c2ccc(CC(=O)O)n2C)cc1` [Tolmetin], the “HIA(Human Intestinal Absorption)” value was 0.99. For `OC[C@@H](O)[C@@H](O)[C@H](O)[C@H](O)CO` [Mannitol], the “HIA(Human Intestinal Absorption)” value is recorded as 0.16. Consider `CC1=C(/C=C/C(C)=C/C=C/C(C)=C/CO)C(C)(C)CCC1` [Vitamin_A], for which the “HIA(Human Intestinal Absorption)” value was 0.8.

As for `NC[C@H]1CC[C@H](C(=O)O)CC1` [Tranexamic_acid], the “HIA(Human Intestinal Absorption)” value was 0.55. For the compound `C#C[C@]1(O)CC[C@H]2[C@@H]3CCc4cc(O)ccc4[C@H]3CC[C@@]21C` [Ethynylestradiol], the “HIA(Human Intestinal Absorption)” value is given as 1.

In the case of `CC(=O)Nc1ccc(O)cc1` [Paracetamol], the “HIA(Human Intestinal Absorption)” value was 0.8. As for `CC(=O)OCC(CCn1cnc2cnc(N)nc21)COC(C)=O` [Famciclovir], the “HIA(Human Intestinal Absorption)” value is 0.77.
